Reference: ChEMBL document CHEMBL4507280 (2021)

Legend:
[1] = biological target: Serine/threonine-protein kinase SIK1 (Homo sapiens) (UniProt P57059); conditions: Compound concentration 1000.0 nM
[2] = biological target: Tyrosine-protein kinase ZAP-70 (Homo sapiens) (UniProt P43403); conditions: Compound concentration 1000.0 nM
[3] = biological target: Bone morphogenetic protein receptor type-1A (Homo sapiens) (UniProt P36894); conditions: Compound concentration 1000.0 nM
[4] = biological target: Tyrosine-protein kinase ITK/TSK (Homo sapiens) (UniProt Q08881); conditions: Compound concentration 1000.0 nM
[5] = tested on: Tyrosine-protein kinase ABL1 (Homo sapiens), P00519 [F317L]; conditions: Compound concentration 1000.0 nM
[6] = tested on: Phosphatidylinositol 4,5-bisphosphate 3-kinase catalytic subunit alpha isoform (Homo sapiens), P42336 [H1047Y]; conditions: Compound concentration 1000.0 nM
[7] = biological target: Receptor-interacting serine/threonine-protein kinase 2 (Homo sapiens) (UniProt O43353); conditions: Compound concentration 1000.0 nM
[8] = biological target: Protein kinase C epsilon type (Homo sapiens) (UniProt Q02156); conditions: Compound concentration 1000.0 nM
[9] = biological target: T1, Alpha-1A adrenergic receptor (Homo sapiens) (UniProt P35348); conditions: Compound concentration 10.0 uM
T1 sequence (whole entry): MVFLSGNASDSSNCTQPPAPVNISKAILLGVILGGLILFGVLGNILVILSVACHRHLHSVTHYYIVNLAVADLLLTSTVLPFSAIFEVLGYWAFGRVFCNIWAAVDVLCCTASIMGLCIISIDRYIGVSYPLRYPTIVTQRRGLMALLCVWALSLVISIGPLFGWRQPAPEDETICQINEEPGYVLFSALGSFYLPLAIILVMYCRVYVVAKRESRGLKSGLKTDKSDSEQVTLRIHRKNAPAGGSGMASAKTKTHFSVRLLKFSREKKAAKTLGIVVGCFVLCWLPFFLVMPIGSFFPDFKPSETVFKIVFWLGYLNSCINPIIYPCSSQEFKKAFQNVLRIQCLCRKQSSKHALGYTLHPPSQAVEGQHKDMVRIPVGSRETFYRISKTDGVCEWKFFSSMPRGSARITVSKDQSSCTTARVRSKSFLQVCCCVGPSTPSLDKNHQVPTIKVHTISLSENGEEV

[10] = biological target: Serine/threonine-protein kinase LATS2 (Homo sapiens) (UniProt Q9NRM7); conditions: Compound concentration 1000.0 nM
[11] = biological target: Serine/threonine-protein kinase Sgk1 (Homo sapiens) (UniProt O00141); conditions: Compound concentration 1000.0 nM
[12] = biological target: Receptor tyrosine-protein kinase erbB-4 (Homo sapiens) (UniProt Q15303); conditions: Compound concentration 1000.0 nM
[13] = biological target: Dual specificity protein kinase CLK2 (Homo sapiens) (UniProt P49760); conditions: Compound concentration 1000.0 nM
[14] = biological target: Cyclin-dependent kinase-like 3 (Homo sapiens) (UniProt Q8IVW4); conditions: Compound concentration 1000.0 nM
[15] = biological target: Casein kinase I isoform alpha (Homo sapiens) (UniProt P48729); conditions: Compound concentration 1000.0 nM
[16] = tested on: Receptor-type tyrosine-protein kinase FLT3 (Homo sapiens), P36888 [UNDEFINED MUTATION]; conditions: Compound concentration 1000.0 nM
[17] = biological target: Tyrosine-protein kinase Yes (Homo sapiens) (UniProt P07947); conditions: Compound concentration 1000.0 nM
[18] = biological target: Serine/threonine-protein kinase 32C (Homo sapiens) (UniProt Q86UX6); conditions: Compound concentration 1000.0 nM
[19] = biological target: Activin receptor type-2A (Homo sapiens) (UniProt P27037); conditions: Compound concentration 1000.0 nM
[20] = biological target: Mitogen-activated protein kinase 9 (Homo sapiens) (UniProt P45984); conditions: Compound concentration 1000.0 nM
[21] = biological target: Ephrin type-A receptor 4 (Homo sapiens) (UniProt P54764); conditions: Compound concentration 1000.0 nM
[22] = biological target: Serine/threonine-protein kinase N2 (Homo sapiens) (UniProt Q16513); conditions: Compound concentration 1000.0 nM
[23] = biological target: Beta-adrenergic receptor kinase 1 (Homo sapiens) (UniProt P25098); conditions: Compound concentration 1000.0 nM
[24] = biological target: Platelet-derived growth factor receptor beta (Homo sapiens) (UniProt P09619); conditions: Compound concentration 1000.0 nM
[25] = biological target: D(3) dopamine receptor (Homo sapiens) (UniProt P35462); conditions: Compound concentration 10.0 uM
[26] = biological target: Serine/threonine-protein kinase RIO1 (Homo sapiens) (UniProt Q9BRS2); conditions: Compound concentration 1000.0 nM
[27] = biological target: Ribosomal protein S6 kinase alpha-4 (Homo sapiens) (UniProt O75676); conditions: Compound concentration 1000.0 nM
[28] = biological target: Interferon-induced, double-stranded RNA-activated protein kinase (Homo sapiens) (UniProt P19525); conditions: Compound concentration 1000.0 nM
[29] = biological target: Eukaryotic translation initiation factor 2-alpha kinase 1 (Homo sapiens) (UniProt Q9BQI3); conditions: Compound concentration 1000.0 nM
[30] = biological target: Serine/threonine-protein kinase DCLK3 (Homo sapiens) (UniProt Q9C098); conditions: Compound concentration 1000.0 nM
[31] = biological target: Homeodomain-interacting protein kinase 3 (Homo sapiens) (UniProt Q9H422); conditions: Compound concentration 1000.0 nM
[32] = tested on: Tyrosine-protein kinase ABL1 (Homo sapiens), P00519 [F317I]; conditions: Compound concentration 1000.0 nM
[33] = biological target: Fibroblast growth factor receptor 2 (Homo sapiens) (UniProt P21802); conditions: Compound concentration 1000.0 nM
[34] = biological target: Serine/threonine-protein kinase 4 (Homo sapiens) (UniProt Q13043); conditions: Compound concentration 1000.0 nM
[35] = biological target: MAP kinase-activated protein kinase 5 (Homo sapiens) (UniProt Q8IW41); conditions: Compound concentration 1000.0 nM
[36] = biological target: Fibroblast growth factor receptor 1 (Homo sapiens) (UniProt P11362); conditions: Compound concentration 1000.0 nM
[37] = biological target: Serine/threonine-protein kinase 16 (Homo sapiens) (UniProt O75716); conditions: Compound concentration 1000.0 nM
[38] = tested on: Receptor-type tyrosine-protein kinase FLT3 (Homo sapiens), P36888 [D835V]; conditions: Compound concentration 1000.0 nM
[39] = biological target: Platelet-derived growth factor receptor alpha (Homo sapiens) (UniProt P16234); conditions: Compound concentration 1000.0 nM
Sequence of Platelet-derived growth factor receptor alpha (Homo sapiens) (P16234 whole entry): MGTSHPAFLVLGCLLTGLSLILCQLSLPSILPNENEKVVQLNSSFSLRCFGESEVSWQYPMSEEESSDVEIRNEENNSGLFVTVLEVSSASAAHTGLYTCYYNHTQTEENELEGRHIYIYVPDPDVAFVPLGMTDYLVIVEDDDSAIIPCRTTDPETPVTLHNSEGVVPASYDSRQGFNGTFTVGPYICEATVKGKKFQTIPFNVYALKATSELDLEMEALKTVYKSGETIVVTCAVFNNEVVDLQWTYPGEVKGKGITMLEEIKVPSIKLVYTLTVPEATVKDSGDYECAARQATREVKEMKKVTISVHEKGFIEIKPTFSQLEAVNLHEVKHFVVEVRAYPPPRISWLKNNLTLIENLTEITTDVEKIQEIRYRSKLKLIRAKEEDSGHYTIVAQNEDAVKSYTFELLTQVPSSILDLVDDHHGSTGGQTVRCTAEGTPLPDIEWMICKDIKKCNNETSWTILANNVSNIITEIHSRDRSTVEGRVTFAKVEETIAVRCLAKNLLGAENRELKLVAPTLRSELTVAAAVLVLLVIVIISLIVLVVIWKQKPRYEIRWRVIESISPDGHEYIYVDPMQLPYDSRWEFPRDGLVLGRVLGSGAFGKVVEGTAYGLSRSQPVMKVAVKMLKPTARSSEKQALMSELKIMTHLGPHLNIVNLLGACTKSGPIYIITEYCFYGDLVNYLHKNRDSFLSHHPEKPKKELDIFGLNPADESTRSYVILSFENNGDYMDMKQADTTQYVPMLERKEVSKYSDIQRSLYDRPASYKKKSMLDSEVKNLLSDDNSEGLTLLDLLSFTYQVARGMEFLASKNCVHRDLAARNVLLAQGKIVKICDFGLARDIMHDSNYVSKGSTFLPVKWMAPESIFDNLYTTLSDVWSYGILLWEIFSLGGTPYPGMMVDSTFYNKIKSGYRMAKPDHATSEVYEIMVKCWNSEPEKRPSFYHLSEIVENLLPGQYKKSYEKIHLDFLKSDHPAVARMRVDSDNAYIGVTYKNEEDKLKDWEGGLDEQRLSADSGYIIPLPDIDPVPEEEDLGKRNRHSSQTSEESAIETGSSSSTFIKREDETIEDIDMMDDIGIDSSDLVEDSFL

Sequence of Ribosomal protein S6 kinase alpha-4 (Homo sapiens) (O75676 whole entry, looked up): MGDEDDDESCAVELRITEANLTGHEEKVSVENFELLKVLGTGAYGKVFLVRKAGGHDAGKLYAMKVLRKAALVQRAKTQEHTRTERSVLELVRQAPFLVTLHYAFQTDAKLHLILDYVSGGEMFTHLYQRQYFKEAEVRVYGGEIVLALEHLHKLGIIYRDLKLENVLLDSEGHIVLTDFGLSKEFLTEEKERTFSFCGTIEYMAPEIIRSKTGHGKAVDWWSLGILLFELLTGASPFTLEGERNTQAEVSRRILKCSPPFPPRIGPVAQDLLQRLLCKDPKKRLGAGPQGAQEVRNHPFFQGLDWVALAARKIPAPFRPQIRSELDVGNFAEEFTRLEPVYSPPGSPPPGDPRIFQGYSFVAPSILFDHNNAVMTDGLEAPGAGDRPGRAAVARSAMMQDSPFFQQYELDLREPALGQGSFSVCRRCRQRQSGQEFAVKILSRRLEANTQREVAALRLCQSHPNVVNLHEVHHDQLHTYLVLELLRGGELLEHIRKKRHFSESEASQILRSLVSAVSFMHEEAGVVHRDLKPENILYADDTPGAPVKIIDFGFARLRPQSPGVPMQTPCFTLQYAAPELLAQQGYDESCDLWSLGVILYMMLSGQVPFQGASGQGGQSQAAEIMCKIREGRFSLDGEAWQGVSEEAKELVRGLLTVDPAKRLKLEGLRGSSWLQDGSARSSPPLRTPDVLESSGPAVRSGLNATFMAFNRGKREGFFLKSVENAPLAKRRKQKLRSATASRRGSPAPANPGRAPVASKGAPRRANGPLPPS
Sequence of Fibroblast growth factor receptor 1 (Homo sapiens) (P11362 22-822 limits assumed): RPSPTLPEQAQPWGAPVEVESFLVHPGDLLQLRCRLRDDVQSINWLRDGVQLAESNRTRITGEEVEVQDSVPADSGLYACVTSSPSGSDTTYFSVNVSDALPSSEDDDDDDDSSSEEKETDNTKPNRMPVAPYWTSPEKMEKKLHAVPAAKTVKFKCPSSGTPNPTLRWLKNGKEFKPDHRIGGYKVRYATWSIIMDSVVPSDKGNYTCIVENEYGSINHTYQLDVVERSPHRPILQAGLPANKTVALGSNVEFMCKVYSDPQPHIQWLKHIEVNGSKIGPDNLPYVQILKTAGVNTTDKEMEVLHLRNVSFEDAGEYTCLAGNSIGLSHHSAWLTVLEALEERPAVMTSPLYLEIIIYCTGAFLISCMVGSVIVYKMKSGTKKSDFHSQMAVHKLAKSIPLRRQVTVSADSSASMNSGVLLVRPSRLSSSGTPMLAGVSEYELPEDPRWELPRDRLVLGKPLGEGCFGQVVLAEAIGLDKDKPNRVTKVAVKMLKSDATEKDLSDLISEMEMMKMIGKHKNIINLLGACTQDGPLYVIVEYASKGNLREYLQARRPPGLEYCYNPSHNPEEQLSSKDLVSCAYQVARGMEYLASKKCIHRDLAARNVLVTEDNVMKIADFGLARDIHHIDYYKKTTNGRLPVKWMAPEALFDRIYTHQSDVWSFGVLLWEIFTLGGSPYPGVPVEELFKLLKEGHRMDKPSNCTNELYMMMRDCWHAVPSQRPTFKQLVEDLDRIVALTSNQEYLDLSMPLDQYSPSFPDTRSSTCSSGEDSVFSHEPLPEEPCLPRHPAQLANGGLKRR
Sequence of MAP kinase-activated protein kinase 5 (Homo sapiens) (Q8IW41 whole entry): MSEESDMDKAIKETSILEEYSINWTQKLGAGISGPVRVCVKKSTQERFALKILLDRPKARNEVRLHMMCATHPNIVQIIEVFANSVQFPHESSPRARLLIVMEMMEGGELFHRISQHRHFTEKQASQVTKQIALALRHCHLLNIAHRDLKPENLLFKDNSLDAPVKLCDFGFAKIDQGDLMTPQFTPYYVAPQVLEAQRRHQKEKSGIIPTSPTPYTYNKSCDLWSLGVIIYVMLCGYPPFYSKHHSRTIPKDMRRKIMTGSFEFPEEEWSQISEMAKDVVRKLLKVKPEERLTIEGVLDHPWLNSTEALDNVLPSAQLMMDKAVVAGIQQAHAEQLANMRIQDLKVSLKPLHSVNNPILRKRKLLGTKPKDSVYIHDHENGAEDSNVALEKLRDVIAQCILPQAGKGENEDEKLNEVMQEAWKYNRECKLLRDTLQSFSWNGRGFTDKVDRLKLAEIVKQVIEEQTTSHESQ
Sequence of Serine/threonine-protein kinase 16 (Homo sapiens) (O75716 whole entry): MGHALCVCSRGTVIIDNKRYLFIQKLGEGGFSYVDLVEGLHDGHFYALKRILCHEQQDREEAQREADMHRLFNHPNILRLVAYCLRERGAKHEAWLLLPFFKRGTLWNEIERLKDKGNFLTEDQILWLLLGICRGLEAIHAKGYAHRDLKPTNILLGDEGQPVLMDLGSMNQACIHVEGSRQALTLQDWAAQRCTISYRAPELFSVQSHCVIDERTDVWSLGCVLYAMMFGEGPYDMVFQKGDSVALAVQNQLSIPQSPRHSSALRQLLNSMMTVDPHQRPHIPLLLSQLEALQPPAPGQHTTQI
Sequence of Dual specificity protein kinase CLK2 (Homo sapiens) (P49760 whole entry, looked up): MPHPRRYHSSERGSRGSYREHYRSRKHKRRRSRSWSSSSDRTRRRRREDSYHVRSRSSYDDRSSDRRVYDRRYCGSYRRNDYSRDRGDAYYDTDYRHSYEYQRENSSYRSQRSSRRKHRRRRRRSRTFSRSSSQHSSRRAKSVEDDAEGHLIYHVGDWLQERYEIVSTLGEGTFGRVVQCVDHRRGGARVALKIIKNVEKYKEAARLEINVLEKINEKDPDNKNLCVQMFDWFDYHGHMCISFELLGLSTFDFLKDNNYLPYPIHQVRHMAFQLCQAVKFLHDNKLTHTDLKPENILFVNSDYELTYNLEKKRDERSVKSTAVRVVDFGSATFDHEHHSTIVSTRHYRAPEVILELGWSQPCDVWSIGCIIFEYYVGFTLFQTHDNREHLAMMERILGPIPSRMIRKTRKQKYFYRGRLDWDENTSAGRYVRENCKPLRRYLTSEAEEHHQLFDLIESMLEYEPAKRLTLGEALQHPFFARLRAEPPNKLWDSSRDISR
Sequence of Serine/threonine-protein kinase 4 (Homo sapiens) (Q13043 whole entry): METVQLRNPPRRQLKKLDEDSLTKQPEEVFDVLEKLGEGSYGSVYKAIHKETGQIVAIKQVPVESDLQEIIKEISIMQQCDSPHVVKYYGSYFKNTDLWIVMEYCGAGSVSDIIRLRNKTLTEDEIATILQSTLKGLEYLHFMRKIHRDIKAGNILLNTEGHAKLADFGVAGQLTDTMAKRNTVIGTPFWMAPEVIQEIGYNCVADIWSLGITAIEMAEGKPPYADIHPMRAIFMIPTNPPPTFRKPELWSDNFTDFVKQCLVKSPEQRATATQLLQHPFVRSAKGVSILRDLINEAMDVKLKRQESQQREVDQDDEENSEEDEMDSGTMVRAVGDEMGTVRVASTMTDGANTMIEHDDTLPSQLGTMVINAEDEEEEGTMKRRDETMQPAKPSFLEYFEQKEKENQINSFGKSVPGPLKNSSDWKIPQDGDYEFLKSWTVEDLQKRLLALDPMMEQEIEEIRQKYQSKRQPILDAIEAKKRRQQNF
Sequence of Casein kinase I isoform alpha (Homo sapiens) (P48729 2-337 limits assumed): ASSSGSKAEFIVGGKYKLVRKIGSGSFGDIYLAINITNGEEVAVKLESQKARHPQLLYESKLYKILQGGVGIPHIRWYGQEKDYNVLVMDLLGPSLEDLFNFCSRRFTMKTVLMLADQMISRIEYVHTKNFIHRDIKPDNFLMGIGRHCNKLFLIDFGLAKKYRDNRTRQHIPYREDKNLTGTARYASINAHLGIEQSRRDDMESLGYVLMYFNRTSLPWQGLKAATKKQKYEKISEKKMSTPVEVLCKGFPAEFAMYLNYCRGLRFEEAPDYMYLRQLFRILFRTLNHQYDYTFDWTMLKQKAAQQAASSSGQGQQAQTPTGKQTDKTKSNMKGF

CCC(=O)N[C@@H]1CC[C@H](C(=O)N(C)c2ccc(-c3nc4ccccc4o3)cc2)C1 [BI 99990]
inactive: residual activity [1] 95% | residual activity [2] 100% | residual activity [3] 96% | residual activity [4] 100% | residual activity [5] 92% | residual activity [6] 100% | residual activity [7] 85% | residual activity [8] 93% | inhibition [9] 19.4% | residual activity [10] 69% | residual activity [11] 100% | residual activity [12] 100% | residual activity [13] 100% | residual activity [14] 79% | residual activity [15] 100% | residual activity [16] 76% | residual activity [17] 100% | residual activity [18] 73% | residual activity [19] 100% | residual activity [20] 98% | residual activity [21] 100% | residual activity [22] 100% | residual activity [23] 100% | residual activity [24] 98% | inhibition [25] 4.36% | residual activity [26] 100% | residual activity [27] 100% | residual activity [28] 100% | residual activity [29] 88% | residual activity [30] 100% | residual activity [31] 76% | residual activity [32] 76% | residual activity [33] 86% | residual activity [34] 90% | residual activity [35] 100% | residual activity [36] 87% | residual activity [37] 100% | residual activity [38] 92% | residual activity [39] 86%

CCC(=O)N[C@H]1CC[C@@H](C(=O)N(C)c2ccc(-c3nc4ccccc4o3)cc2)C1 [BI 99179]
inactive: residual activity [1] 89% | residual activity [2] 82% | residual activity [3] 88% | residual activity [4] 100% | residual activity [5] 86% | residual activity [6] 97% | residual activity [7] 100% | residual activity [8] 90% | inhibition [9] 22.1% | residual activity [10] 67% | residual activity [11] 100% | residual activity [12] 100% | residual activity [13] 95% | residual activity [14] 100% | residual activity [15] 82% | residual activity [16] 84% | residual activity [17] 82% | residual activity [18] 94% | residual activity [19] 98% | residual activity [20] 79% | residual activity [21] 79% | residual activity [22] 100% | residual activity [23] 66% | residual activity [24] 89% | inhibition [25] 12.1% | residual activity [26] 99% | residual activity [27] 79% | residual activity [28] 100% | residual activity [29] 93% | residual activity [30] 87% | residual activity [31] 74% | residual activity [32] 86% | residual activity [33] 91% | residual activity [34] 100% | residual activity [35] 73% | residual activity [36] 100% | residual activity [37] 100% | residual activity [38] 73% | residual activity [39] 85%
